Literature values in US12171237B2, “Insect repelling compositions and methods of manufacture thereof” (priority 2019, dated 2024).
“Also recorded” adds a separate entry of the source. Like-named read-outs stand apart in the source and are kept apart here.

Experiments:
female Ae. albopictus = details: spatial repellent, 0.25 μg·cm^−2, after 48 h exposure
Ae. aegypti = details: 1 h, 1.92 μg·cm^−2
female Ae. aegypti = details: Human-bait assay
Ae. albopictus = details: 1 h, 1.92 μg·cm^−2
[1] = tested on: female Cx. pipiens pallens
[2] = tested on: Cx. pipiens pallens, Cx. pipiens quinquefasciatus
Mosquito = details: d-α-pinene

Structure (SMILES) | repellency (†) (Ae. aegypti) | repellency (female Ae. aegypti; 1.4 mg·cm^−2) | repellency (‡) (Ae. albopictus) | further results
CC(C)=CCCC(C)CCO (centres unmarked) [Citronellol] | – | – | – | Repellency (in words) (female An. gambiae): repellent component; also recorded: feeding deterrent/repellent, spatial repellent/inhibitor
CC(C)=CCC/C(C)=C/CO [Geraniol] | – | – | – | (reversible) inhibition of host-seeking (female Ae. albopictus): spatial repellent: 0.25 μg · cm^−2 ca. 100% (reversible)
CC1=CCC(O)(C(C)C)CC1 (centres unmarked) [Terpinen-4-ol] | 92% | ^a1.4 mg · cm^−2 = 83% repellency | 85% | –
C=CCc1ccc(O)c(OC)c1 [Eugenol] | – | – | – | Repellency (in words) [1]: high repellency
CCCCCCCC/C=C\CCCCCCCC(=O)O [Oleic acid] | – | – | – | repellency (female Ae. aegypti; 0.4 mg·cm^−2, after 1 h): 0.4 mg · cm^−2 = 52% repellency after 1 h^a
CC(C)=CCC/C(C)=C/C=O [Geranial] | – | – | – | blood-sucking by mosquitoes reduced by ([2]; at 0.2 mg·cm^−2, after 1 h): 10%; blood-sucking by mosquitoes reduced by ([2]; at 0.2 mg·cm^−2, after 2 h): 15%; blood-sucking by mosquitoes reduced by ([2]; at 0.2 mg·cm^−2, after 3 h): 18%
CC1=CCC2CC1C2(C)C (stereo not drawn) [α-Pinene] | – | – | – | protection (Mosquito): d-α-pinene , 2 h protection
CC1=CC=C(C(C)C)CC1 [α-Terpinene] | 68% | ^a1.4 mg · cm^−2 = 15% repellency | 55% | –
CC1=CCC(C(C)C)=CC1 [γ-Terpinene] | 60% | – | 72% | –
C=CC(C)(O)CCC=C(C)C (racemic) [Linalool] | – | ^a1.4 mg (±)-linalool · cm^−2 = 67% repellency | – | –
